Source: patent US20250171418A1, “PARP1 INHIBITORS AND USES THEREOF” (XinThera, Inc., priority 2022, published 2025)

Key:
DLD-1 BRCA2(−/−) = test: Cell growth inhibition assay (CellTiter-Glo cell viability); type: cell-based; details: DLD-1 BRCA2(−/−) cells, 7 days, CellTiter Glo 2.0
Experimental: (§1) Cell proliferation was measured through the cell viability assay using DLD-1 BRCA2(−/−) and parental isogenic pair and MDA-MB-436 (mutated BRCA1) cell lines. The CellTiter-Glo (CTG) based cell viability assay is designed to determine the number of viable cells in the culture because of compound effect, by quantifying ATP, which indicates the presence of metabolically active cells.
(§2) DLD-1 BRCA2(−/−) and parental isogenic pair were cultured in RPMI 1640 supplemented with 10% fetal bovine serum (FBS), and MDA-MB-436 cells were cultured in DMEM supplemented with 10% FBS. Both were cultured at 37° C. with […]. Invention compounds were distributed to the 384 well plate (Corning, 3764) using Echo acoustic liquid handler to form a 1:3 serially diluted final concentration with top dose of 10 or 30 μM.

[1] = system: MDA-MB-436 (mutated BRCA1) cell lines; test: as above; type: cell-based; details: MDA-MB-436 cells, 7 days, CellTiter Glo 2.0
Experimental: as §1, §2

PARP1 = PARP1 (Homo sapiens, UniProt P09874); test: biochemical
PARP1, sequence (P09874 whole entry): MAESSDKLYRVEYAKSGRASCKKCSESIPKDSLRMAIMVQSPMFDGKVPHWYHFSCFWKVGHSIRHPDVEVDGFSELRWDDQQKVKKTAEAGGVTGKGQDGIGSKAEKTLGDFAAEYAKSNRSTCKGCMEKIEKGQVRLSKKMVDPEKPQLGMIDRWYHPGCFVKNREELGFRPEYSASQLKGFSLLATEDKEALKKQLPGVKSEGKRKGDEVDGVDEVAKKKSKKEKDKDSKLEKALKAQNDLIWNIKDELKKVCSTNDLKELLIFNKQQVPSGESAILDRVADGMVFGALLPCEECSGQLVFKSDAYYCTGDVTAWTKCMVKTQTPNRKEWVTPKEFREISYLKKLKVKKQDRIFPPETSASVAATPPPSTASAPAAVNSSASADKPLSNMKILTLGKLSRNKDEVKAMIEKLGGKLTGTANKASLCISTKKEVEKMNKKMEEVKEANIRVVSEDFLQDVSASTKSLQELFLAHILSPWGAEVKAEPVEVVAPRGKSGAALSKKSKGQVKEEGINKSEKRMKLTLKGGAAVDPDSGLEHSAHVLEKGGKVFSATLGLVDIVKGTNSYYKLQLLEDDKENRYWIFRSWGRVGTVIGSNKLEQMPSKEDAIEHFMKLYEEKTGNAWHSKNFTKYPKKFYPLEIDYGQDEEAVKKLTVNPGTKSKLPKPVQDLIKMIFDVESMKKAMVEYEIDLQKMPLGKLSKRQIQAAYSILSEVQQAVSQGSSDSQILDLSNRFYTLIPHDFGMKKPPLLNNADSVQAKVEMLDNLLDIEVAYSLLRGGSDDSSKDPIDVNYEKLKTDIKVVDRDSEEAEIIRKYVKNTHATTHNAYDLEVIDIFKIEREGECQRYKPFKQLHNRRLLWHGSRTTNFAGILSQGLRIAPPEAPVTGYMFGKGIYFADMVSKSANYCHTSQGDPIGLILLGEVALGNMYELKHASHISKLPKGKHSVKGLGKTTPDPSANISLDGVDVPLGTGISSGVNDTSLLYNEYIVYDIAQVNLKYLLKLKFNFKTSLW
Experimental: The assay was performed utilizing the following method:
Compounds were dissolved in DMSO an Echo550 liquid handler was utilized to make serial dilations in the desired concentration range in Optiplate-384F plates. 100% DMSO was used for the high (with protein) and low (without protein) control samples. 20 nL of compound or DMSO alone was added to individual assay plate wells.
PARP1 and PARP2 protein were expressed, purified, and diluted in assay buffer containing 50 mM Tris pH 8.0, 0.001% Triton X-100, 10 mM MgCl2, 150 mM NaCl to a final concentration of 20 nM. The PARPi-FL was then added at a final concentration of 3 nM.
The assay plate was centrifuged at 1000 rpm for 1 min and incubated for 4 h at room temperature.
The fluorescent polarization was read using an Envision plate reader using the following settings: • Excitation filter—FITC FP 480-Ex Slot 3 • Emission filter—FITC FP P-pol 535-Em Slot 4 • 2nd Emission filter—FITC FP S-pol 535-Em Slot 3 • Mirror module—FITC FP Dual Enh-Slot 1
XLFit (equation 201) is used to calculate a reported IC50 for each compound.

MDR1 = molecular target: T1, MDR1 (Homo sapiens, UniProt P08183); test: In vitro human transporter efflux, MDCKII cells expressing MDR1; type: in vitro ADME; details: for Papp A→B at 2 h, 10 μM: MDCK-MDR1, pH 7.4, read-out: MDCK-MDR1 Papp AB; for Papp B→A at 2 h, 10 μM: MDCK-MDR1, pH 7.4, read-out: MDCK-MDR1 Papp BA
T1 construct: expressed in transfected cells; host or cells: MDCKII (Madin-Darby canine kidney) cells
T1 sequence (P08183 whole entry): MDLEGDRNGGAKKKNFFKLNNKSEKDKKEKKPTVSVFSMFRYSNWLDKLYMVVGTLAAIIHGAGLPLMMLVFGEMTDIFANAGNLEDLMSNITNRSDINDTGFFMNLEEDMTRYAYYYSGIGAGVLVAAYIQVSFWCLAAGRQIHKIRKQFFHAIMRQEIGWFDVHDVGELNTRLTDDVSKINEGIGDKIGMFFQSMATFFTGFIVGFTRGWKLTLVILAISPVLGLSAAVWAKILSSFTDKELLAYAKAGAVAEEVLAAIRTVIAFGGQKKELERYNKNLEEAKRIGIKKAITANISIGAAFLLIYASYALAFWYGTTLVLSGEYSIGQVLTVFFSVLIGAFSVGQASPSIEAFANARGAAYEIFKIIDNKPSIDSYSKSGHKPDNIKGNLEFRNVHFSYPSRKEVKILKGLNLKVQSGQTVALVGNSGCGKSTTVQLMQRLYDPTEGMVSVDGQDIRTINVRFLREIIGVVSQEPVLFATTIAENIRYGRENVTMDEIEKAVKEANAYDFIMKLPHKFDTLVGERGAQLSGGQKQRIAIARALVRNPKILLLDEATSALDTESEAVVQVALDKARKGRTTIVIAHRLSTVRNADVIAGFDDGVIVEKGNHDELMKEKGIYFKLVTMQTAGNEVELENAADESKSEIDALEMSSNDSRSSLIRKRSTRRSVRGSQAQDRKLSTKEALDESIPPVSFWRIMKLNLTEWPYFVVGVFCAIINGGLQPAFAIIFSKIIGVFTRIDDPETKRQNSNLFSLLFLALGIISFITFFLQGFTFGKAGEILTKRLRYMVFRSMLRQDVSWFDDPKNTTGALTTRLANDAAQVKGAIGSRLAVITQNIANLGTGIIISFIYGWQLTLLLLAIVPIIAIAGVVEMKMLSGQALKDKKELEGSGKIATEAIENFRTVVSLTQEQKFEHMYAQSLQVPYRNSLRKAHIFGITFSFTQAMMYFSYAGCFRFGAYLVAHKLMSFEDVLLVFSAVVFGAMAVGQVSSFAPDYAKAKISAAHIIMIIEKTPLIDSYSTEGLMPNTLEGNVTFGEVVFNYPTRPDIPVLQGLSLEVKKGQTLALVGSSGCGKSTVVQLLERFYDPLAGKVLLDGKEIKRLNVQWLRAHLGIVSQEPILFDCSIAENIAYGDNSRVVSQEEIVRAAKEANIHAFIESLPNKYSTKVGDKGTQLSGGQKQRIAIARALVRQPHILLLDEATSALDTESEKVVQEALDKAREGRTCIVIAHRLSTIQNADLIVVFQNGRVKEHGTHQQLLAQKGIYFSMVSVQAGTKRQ
Experimental: (§3) Madin-Darby canine kidney (MDCKII) cells expressing either MDR1 or BCRP were seeded onto Corning HTS Transwell® 96-well polycarbonate permeable (0.4 μm pore) supports at a density of 545,000 cells/cm2. Cells were incubated for 4-8 days prior to assay, and monolayer integrity was assessed by measuring transepithelial electrical resistance (TEER). […] The final organic solvent concentration was 0.5% (v/v). Bidirectional (apical-to-basolateral and basolateral-to-apical) flux of the test and reference compounds was determined over a 2-hour incubation at 37° C. and […] with a relative humidity of 95%. At the end of the incubation, samples from the apical and basolateral side were taken and then precipitated with acetonitrile containing internal standard. After centrifugation at 3200×g, supernatants were diluted 1:1 (v/v) with water and subjected to analysis via HPLC-MS/MS.
(§4) The apparent permeability (Papp, units of x 10-6 cm/s) was calculated using the following equation: […]
(§5) Where dQ/dt was the rate of drug transport (pmol/s), A was the surface area of the membrane (0.143 cm^2), and DO was the initial donor concentration (nM or pmol/cm3).
(§6) Efflux ratio=Papp(B→A)/Papp(A→B)
(§7) Where Papp(B→A) is the apparent permeability in the basolateral-to-apical direction, and Papp(A→B) is the apparent permeability in the apical-to-basolateral direction.

BCRP = molecular target: T2, BCRP (Homo sapiens, UniProt Q9UNQ0); test: In vitro human transporter efflux, MDCKII cells expressing BCRP; type: in vitro ADME; details: for Papp A→B at 2 h, 10 μM: pH 7.4, read-out: BCRP Papp AB; for Papp B→A at 2 h, 10 μM: pH 7.4, read-out: BCRP Papp BA
T2 construct: expressed in transfected cells; host or cells: MDCKII (Madin-Darby canine kidney) cells
T2 sequence (Q9UNQ0 1-655): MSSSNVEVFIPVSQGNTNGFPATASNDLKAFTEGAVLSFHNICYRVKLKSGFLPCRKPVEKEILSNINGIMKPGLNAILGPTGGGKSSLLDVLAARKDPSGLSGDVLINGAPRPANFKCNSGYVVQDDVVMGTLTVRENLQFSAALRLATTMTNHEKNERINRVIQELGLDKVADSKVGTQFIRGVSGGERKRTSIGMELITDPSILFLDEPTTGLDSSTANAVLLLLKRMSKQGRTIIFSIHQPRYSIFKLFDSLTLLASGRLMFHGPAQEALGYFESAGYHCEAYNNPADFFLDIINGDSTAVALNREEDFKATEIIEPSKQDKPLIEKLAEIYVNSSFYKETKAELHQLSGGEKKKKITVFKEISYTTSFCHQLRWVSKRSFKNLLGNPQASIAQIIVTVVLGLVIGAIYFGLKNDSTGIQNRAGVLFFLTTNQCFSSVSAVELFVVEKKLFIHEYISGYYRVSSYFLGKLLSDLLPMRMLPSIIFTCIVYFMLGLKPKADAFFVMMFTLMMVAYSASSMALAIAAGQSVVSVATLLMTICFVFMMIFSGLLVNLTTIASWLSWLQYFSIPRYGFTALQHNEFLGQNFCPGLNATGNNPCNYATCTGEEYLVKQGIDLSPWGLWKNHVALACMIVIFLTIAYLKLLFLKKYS
Experimental: as §3, §4, §5, §6, §7

Row | Structure (SMILES) | EC50 (DLD-1 BRCA2(−/−); Homo sapiens, DLD-1, 168 h) [nM] | EC50 ([1]; Homo sapiens, 168 h) [nM] | IC50 (PARP1) [nM] | also measured
1 | CNC(=O)c1ccc(N2CCN(Cc3ccc4nc(C)c(=O)[nH]c4c3F)[C@H]3C[C@H]32)c(F)n1 (relative stereo) [Example 2, rel-6-fluoro-5-[(1R,6S)-5-[(5-fluoro-2-methyl-3-oxo-4H-quinoxalin-6-yl)methyl]-2,5-diazabicyclo[4.1.0]heptan-2-yl]-N-methylpyridine-2-carboxamide] | 3.5 | 7 | – | –
2 | Cc1nc2ccc(CN3CCN(c4ccc(C(=O)NC5CC5)nc4)[C@H]4C[C@H]43)c(F)c2[nH]c1=O (single isomer, unassigned) [Example 6] | 84 | 58 | 14 | –
3 | Cc1nc2ccc(CN3CCN(c4ccc(C(=O)NC5CC5)nc4F)[C@H]4C[C@H]43)c(F)c2[nH]c1=O (single isomer, unassigned) [Example 9] | 19 | 7.2 | – | –
4 | CCc1nc2ccc(C(C)N3CCN(c4ccc(C(=O)NC)nc4)CC3)c(F)c2[nH]c1=O (single isomer, unassigned) [Example 15] | 28 | 15 | – | –
5 | CCc1nc2ccc(C(C)N3CCN(c4ccc(C(=O)NC)nc4)CC3)c(F)c2[nH]c1=O (single isomer, unassigned) [Example 16] | – | – | – | EC50 (DLD-1 BRCA2(−/−)): 30 nM; EC50 [1]: 15 nM
6 | CCc1nc2ccc([C@H](C)N3CCN(c4ccc(C(=O)NC)nc4F)CC3)c(F)c2[nH]c1=O (single isomer, unassigned) [Example 17] | 7.7 | 6.8 | 24 | –
7 | CCc1nc2ccc([C@@H](C)N3CCN(c4ccc(C(=O)NC)nc4F)CC3)c(F)c2[nH]c1=O (single isomer, unassigned) [Example 18] | 8.7 | 4.4 | 15 | –
8 | CNC(=O)c1ccc(N2CCN([C@@H](C)c3ccc4nc(C)c(=O)[nH]c4c3F)CC2)c(F)n1 (single isomer, unassigned) [Example 22] | 25 | 14 | – | –
9 | CNC(=O)c1ccc(N2CCN([C@H](C)c3ccc4nc(C)c(=O)[nH]c4c3F)CC2)c(F)n1 (single isomer, unassigned) [Example 23] | 18 | 18 | – | –
10 | Cc1nc2ccc([C@H](C)N3CCN(c4ccc(C(=O)NC5CC5)nc4)CC3)c(F)c2[nH]c1=O (single isomer, unassigned) [Example 28] | 970 | 21 | 70 | –
11 | Cc1nc2ccc([C@@H](C)N3CCN(c4ccc(C(=O)NC5CC5)nc4)CC3)c(F)c2[nH]c1=O (single isomer, unassigned) [Example 29] | 45 | 84 | 90 | –
12 | CNC(=O)c1ccc(C2CCN(Cc3ccc4nc(C)c(=O)[nH]c4c3F)CC2)c(F)n1 [Example 5, 6-fluoro-5-{1-[(5-fluoro-2-methyl-3-oxo-4H-quinoxalin-6-yl)methyl]piperidin-4-yl}-N-methylpyridine-2-carboxamide] | 23 | 11 | 16 | –
13 | CNC(=O)c1ccc(C2=CCN(Cc3ccc4nc(C)c(=O)[nH]c4c3F)CC2)c(F)n1 [Example 7, 2-fluoro-1′-[(5-fluoro-2-methyl-3-oxo-4H-quinoxalin-6-yl)methyl]-N-methyl-3′,6′-dihydro-2′H-[3,4′-bipyridine]-6-carboxamide] | 15 | 6.7 | 15 | –
14 | Cc1nc2ccc(CN3CC=C(c4ccc(C(=O)NC5CC5)nc4F)CC3)c(F)c2[nH]c1=O [Example 26] | 21 | 23 | 37 | –
15 | Cc1nc2ccc(CN3CCC(c4ccc(C(=O)NC5CC5)nc4F)CC3)c(F)c2[nH]c1=O [Example 27] | 27 | 11 | – | –

Further lines, with some results ahead:

Row | EC50 (DLD-1 BRCA2(−/−); Homo sapiens, DLD-1, 168 h) [nM] | EC50 ([1]; Homo sapiens, 168 h) [nM] | IC50 (PARP1) [nM] | Structure (SMILES) | also measured
16 | 5.7 | 3.1 | – | Cc1nc2ccc(CN3CCN(c4ccc(C(=O)N[C@H]5CC5(F)F)nc4F)CC3)c(F)c2[nH]c1=O (single isomer, unassigned) [Example 20] | –
17 | 3.1 | 2 | – | Cc1nc2ccc(CN3CCN(c4ccc(C(=O)N[C@@H]5CC5(F)F)nc4F)CC3)c(F)c2[nH]c1=O (single isomer, unassigned) [Example 21] | Papp A→B at 2 h, 10 μM (MDR1): 16.6 ×10⁻⁶ cm/s; Papp B→A at 2 h, 10 μM (MDR1): 16.4 ×10⁻⁶ cm/s; Papp A→B at 2 h, 10 μM (BCRP): 21.4 ×10⁻⁶ cm/s; Papp B→A at 2 h, 10 μM (BCRP): 19.4 ×10⁻⁶ cm/s
18 | 20 | 7.9 | 24 | Cc1nc2ccc([C@H](C)N3CCN(c4ccc(C(=O)NC5CC5)nc4F)CC3)c(F)c2[nH]c1=O (single isomer, unassigned) [Example 24] | –
19 | 35 | 12 | 24 | Cc1nc2ccc([C@@H](C)N3CCN(c4ccc(C(=O)NC5CC5)nc4F)CC3)c(F)c2[nH]c1=O (single isomer, unassigned) [Example 25] | –
20 | 17 | 35 | – | CNC(=O)c1ccc(N2CCN(Cc3ccc4nc(C)c(=O)[nH]c4c3F)C[C@H]2C)c(F)n1 [Example 3] | –
21 | 5.2 | 3.7 | 18 | Cc1nc2ccc(CN3CCN(c4ccc(C(=O)NC56CC(C5)C6)nc4F)CC3)c(F)c2[nH]c1=O [Example 4] | –
22 | 39 | 13 | 15 | Cc1nc2ccc(CN3CCN(c4ccc(C(=O)NC5CC5)nc4)CC3)c(F)c2[nH]c1=O [Example 8] | –
23 | 14 | 8.1 | – | COCCNC(=O)c1ccc(N2CCN(Cc3ccc4nc(C)c(=O)[nH]c4c3F)CC2)c(F)n1 [Example 10] | –
24 | 6.8 | 3.8 | 5.2 | Cc1nc2ccc(CN3CCN(c4ccc(C(=O)N[C@H]5C[C@H](F)C5)nc4F)CC3)c(F)c2[nH]c1=O [Example 11] | –
25 | 7.1 | 5.3 | – | CCc1nc2ccc(CN3CCN(c4ccc(C(=O)NCCOC)nc4F)CC3)c(F)c2[nH]c1=O [Example 12] | –
26 | 4.4 | 5 | – | Cc1nc2ccc(CN3CCN(c4ccc(C(=O)NC5CC(F)(F)C5)nc4F)CC3)c(F)c2[nH]c1=O [Example 13] | –
27 | 2.8 | 2.1 | 5.3 | CCc1nc2ccc(CN3CCN(c4ccc(C(=O)NC5CC5)nc4F)CC3)c(F)c2[nH]c1=O [Example 14] | –
28 | 3.9 | 2.2 | 18 | Cc1nc2ccc(CN3CCN(c4ccc(C(=O)NCC(F)F)nc4F)CC3)c(F)c2[nH]c1=O [Example 19] | efflux ratio at 2 h, 10 μM (MDR1; MDCK-MDR1, pH 7.4, Efflux ratio=Papp(B→A)/Papp(A→B)): 0.87; Papp A→B at 2 h, 10 μM (MDR1): 20.9 ×10⁻⁶ cm/s; Papp B→A at 2 h, 10 μM (MDR1): 18.2 ×10⁻⁶ cm/s; efflux ratio at 2 h, 10 μM (BCRP; pH 7.4, Efflux ratio=Papp(B→A)/Papp(A→B)): 0.73; Papp A→B at 2 h, 10 μM (BCRP): 28 ×10⁻⁶ cm/s; Papp B→A at 2 h, 10 μM (BCRP): 20.2 ×10⁻⁶ cm/s
